Laboratory results from ChEMBL document CHEMBL1144945, “Development of progesterone receptor antagonists from 1,2-dihydrochromeno[3,4-f]quinoline agonist pharmacophore” (Bioorg Med Chem Lett, 2003).
Active and inactive are the calls of the source.

Legend:
Progesterone receptor [1] = biological target: T1, Progesterone receptor (Homo sapiens, UniProt P06401); test: Effective concentration for human progesterone in T47D human breast cancer cell; not active (<20% efficacy and/or >10 mM potency); type: cell-based; conditions: cancer cell lines
T1 sequence (P06401 whole entry): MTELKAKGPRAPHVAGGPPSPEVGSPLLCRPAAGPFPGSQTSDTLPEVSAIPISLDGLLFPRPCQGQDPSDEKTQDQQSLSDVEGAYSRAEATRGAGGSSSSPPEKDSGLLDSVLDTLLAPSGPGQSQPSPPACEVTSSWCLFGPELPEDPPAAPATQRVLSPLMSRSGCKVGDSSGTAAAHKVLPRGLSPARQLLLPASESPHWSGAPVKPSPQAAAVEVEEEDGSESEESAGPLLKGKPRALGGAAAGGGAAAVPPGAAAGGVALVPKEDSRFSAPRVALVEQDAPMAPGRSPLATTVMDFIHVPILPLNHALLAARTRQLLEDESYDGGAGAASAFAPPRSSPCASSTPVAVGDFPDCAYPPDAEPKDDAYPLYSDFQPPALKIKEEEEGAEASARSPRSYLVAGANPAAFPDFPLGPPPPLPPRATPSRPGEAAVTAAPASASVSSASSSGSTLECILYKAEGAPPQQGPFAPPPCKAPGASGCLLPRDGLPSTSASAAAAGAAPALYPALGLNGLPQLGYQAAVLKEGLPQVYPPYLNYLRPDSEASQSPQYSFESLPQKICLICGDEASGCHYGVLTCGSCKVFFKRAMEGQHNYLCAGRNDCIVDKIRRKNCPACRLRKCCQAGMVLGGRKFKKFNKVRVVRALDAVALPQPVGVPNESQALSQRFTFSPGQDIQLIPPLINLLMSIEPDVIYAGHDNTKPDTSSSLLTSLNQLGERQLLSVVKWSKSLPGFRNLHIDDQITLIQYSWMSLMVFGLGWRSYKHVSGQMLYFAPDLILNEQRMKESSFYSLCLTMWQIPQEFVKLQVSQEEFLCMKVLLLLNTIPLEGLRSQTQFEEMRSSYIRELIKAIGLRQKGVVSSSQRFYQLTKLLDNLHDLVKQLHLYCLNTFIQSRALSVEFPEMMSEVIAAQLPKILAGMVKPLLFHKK

[2] = biological target: T2, Progesterone receptor (Homo sapiens) (UniProt P06401); test: Agonist efficacy for human progesterone receptor in T47D human breast cancer cell; not active (<20% efficacy and/or >10 mM potency); type: functional, cell-based
T2 sequence (whole entry): T1 sequence (P06401 whole entry)

Progesterone receptor [3] = biological target: T1, Progesterone receptor
Description: Inhibition of human progesterone receptor activation in T47D human breast cancer cell.

Progesterone receptor [4] = biological target: T1, Progesterone receptor; remark: listed apart in the source
Description: Antagonistic activity at human progesterone receptor in CV-1 cells.

Progesterone receptor [5] = biological target: T1, Progesterone receptor; test: Effective concentration for human progesterone receptor in T47D human breast cancer cell; not active (<20% efficacy and/or >10 mM potency); conditions: cancer cell lines
Progesterone receptor [6] = biological target: T1, Progesterone receptor; test: Inhibition of human progesterone receptor in T47D human breast cancer cell; not active (<20% efficacy and/or >10 mM potency); type: cell-based
Progesterone receptor [7] = biological target: T1, Progesterone receptor; test: Effective concentration for antagonistic activity towards human progesterone receptor in CV-1 cells; not active (<20% efficacy and/or >10 mM potency); type: functional, cell-based
Progesterone receptor [8] = biological target: T1, Progesterone receptor; remark: listed apart in the source
Description: Binding affinity at human progesterone receptor.

[9] = biological target: T2, Progesterone receptor (Homo sapiens); test: Antagonist efficacy for human progesterone receptor in CV-1 cells; not active (<20% efficacy and/or >10 mM potency); type: functional, cell-based
Progesterone receptor [10] = biological target: T1, Progesterone receptor; test: Binding towards human progesterone receptor; Not tested

SMILES	EC50 (Progesterone receptor [1])	Efficacy [2]	IC50 (Progesterone receptor [3])	EC50 (Progesterone receptor [4])	EC50 (Progesterone receptor [5])	IC50 (Progesterone receptor [6])	EC50 (Progesterone receptor [7])	Ki (Progesterone receptor [8])	Efficacy [9]	Ki (Progesterone receptor [10])
CC1=CC(C)(C)Nc2ccc3c(c21)COc1c(Cl)cccc1-3	Not Active	inactive	782 nM	576 nM						
CC1=CC(C)(C)Nc2ccc3c(c21)COc1cc(C(F)(F)F)ccc1-3		inactive			Not Active	Not Active	Not Active	> 1000 nM	inactive	
CC1=CC(C)(C)Nc2ccc3c(c21)COc1c-3cc(Br)c(C=O)c1F				576 nM						290 nM
